For this test, the target named is T1, recombinant human S-COMT (Homo sapiens, UniProt P21964).
T1 sequence (P21964 1-221 isoform P21964-2): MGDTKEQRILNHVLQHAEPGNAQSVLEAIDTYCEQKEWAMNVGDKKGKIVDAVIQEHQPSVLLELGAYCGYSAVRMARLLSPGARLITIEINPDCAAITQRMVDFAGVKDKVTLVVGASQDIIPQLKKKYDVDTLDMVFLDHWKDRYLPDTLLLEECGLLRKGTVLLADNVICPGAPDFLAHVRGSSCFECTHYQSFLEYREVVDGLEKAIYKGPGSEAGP
Kind of test: COMT inhibition assay with the fluorescent probe substrate 3-BTD. The class given is biochemical. Particulars: IC50, 3-BTD as substrate.

Each structure is given as a SMILES string.

As a reminder, the IC50 is the point on the concentration scale where inhibition reaches its midpoint. With `O=C(O)[C@H]1O[C@@H](Oc2cc3oc(-c4ccc(O)cc4)cc(=O)c3c(O)c2O)[C@H](O)[C@@H](O)[C@@H]1O` [Scutellarin, scutellarin], the half-inhibitory concentration (IC50) is 0.221 ± 0.032 µM.

`COc1c(O)cc(O)c2c(=O)cc(-c3ccccc3)oc12` [Wogonin, wogonin]: the IC50 amounted to 24.1 ± 4.96 µM.

(Values after paper PMC8695704 (RSC Advances, 2021).)
